Measured values as given in US5078135A, “Apparatus for in vivo analysis of biological compounds in blood or tissue by microdialysis and mass spectrometry” (Board of Regents, The University of Texas System, priority 1989, dated 1992).

Experiments:
[1] = in vivo pharmacokinetic analysis of free drug by microdialysis / CF-FAB mass spectrometry (jugular vein probe, rat); design: species or system Sprague Dawley male rat; conditions: 330 gram rat, 15 milligrams sodium penicillin G in 0.3 milliliters saline, injected
From the text: Referring to FIG. 1, the present invention applied to detect drug and metabolite levels in a rat is disclosed. It should be emphasized that the present apparatus and method can be applied to other animals, including humans. Microdialysis probe 11 is inserted inside a 22-gauge needle cannula (not shown) surgically placed in the jugular vein of a 330 gram Sprague Dawley male rat 12. A microliter syringe pump 13 is connected to microdialysis probe 11 by tube 14 and is used to controllably provide perfusate to microdialysis probe 11 through tube 14. Syringe pump 13 can be a Model 2274 pump available from the Harvard Apparatus Co., of Milford, Mass. In the preferred embodiment, the perfusate is 95% water and 5% glycerol provided at a rate of 4.8+/-0.2 microliters per minute.
The dialysate output from microdialysis probe 11 is connected through tube 16 to injection switch valve 17 which can be, for example, a Rheodyne Model 7410 injection switch valve. During collection, injection switch valve 17 is positioned so that dialysate passing through tube 16 passes through 20 microliter collection loop 18. […]
A 330 gram rat was injected with a dose of 15 milligrams of sodium penicillin G dissolved in 0.3 milliliters of physiological saline solution. Negative ions were recorded in the mass spectrometric analysis of the dialysate in order to obtain maximum sensitivity. […]

[2] = intramuscular administration; broken curve 43 in FIG. 4; cited from earlier work

In the case of `CC1(C)S[C@@H]2[C@H](NC(=O)Cc3ccccc3)C(=O)N2[C@H]1C(=O)O` [sodium penicillin G], the “peak concentration of free drug (non-protein bound)” value [1] is given as “approximately 24 micrograms per milliliter”, the “time of peak concentration of free drug” value [1] is given as “about 30 minutes” and the “time to peak, published data” value [2] is given as 26 to 30 min.
